# Test results reported in patent publication US20250051851A1, “NOVEL BIOMARKER FOR DETECTION OF CANCER METASTASIS” (INDUSTRY-ACADEMIC COOPERATION FOUNDATION, YONSEI UNIVERSITY, priority 2021, published 2025).
# Tested on: IKZF1 and IKZF3
# Experiment: In vivo experiment using IKZF inhibitor: counting circulating tumor cells in melanoma mouse model
# Conditions: melanoma mouse model (B16F10 cells injected into paw pad); injection of the drug; FIG. 12
compound,measurement,value
Nc1cccc2c1C(=O)N(C1CCC(=O)NC1=O)C2=O (stereo not shown) [pomalidomide],number of circulating tumor cells,decreased
